The source of these data is US9120804B2, “8-substituted 2-amino-[1,2,4] triazolo [1, 5-A] pyrazines as Syk tryrosine kinase inhibitors and GCN2 serin kinase inhibitors” (Merck Patent GmbH, priority 2012, dated 2015).

As usually defined, the IC50 is the concentration that inhibits the measured activity by half. A low value points to greater potency.

This assay addresses T1, SYK (Homo sapiens, UniProt P43405).
T1 construct: 2.5 nM SYK, 400 nM Biotin-Aha-Aha-KEDPDYEWPSAKK
In words: SYK flash plate assay (enzyme assay). It is filed as biochemical. In short, it runs like this:
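Radiometric Flashplate format: biotinylated peptide substrate (400 nM) and 33P-labelled ATP (10 μM) react with 2.5 nM enzyme for 1 hour at 30 °C in Hepes buffer, pH 7.5. After EDTA quench and washing, counts are taken; staurosporine defines non-specific signal, and IC50 values are derived.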
Compound `c1ccc(-c2ccccc2-c2nccn3nc(Nc4ccc5cn[nH]c5c4)nc23)cc1` [C11, (8-Biphenyl-2-yl-[1,2,4]triazolo[1,5-a]pyrazin-2-yl)-(1H-indazol-6-yl)-amine] displayed a half-maximal inhibitory concentration (IC50) of 0.3 to 3 µM. Turning to `CN(c1nccn2nc(Nc3ccc4c(c3)NC(=O)C4(C)C)nc12)C1CCNCC1` [E17, 3,3-dimethyl-6-[8-(methyl-piperidin-4-yl-amino)-[1,2,4]triazolo[1,5-a]pyrazin-2-ylamino]-1,3-dihydro-indol-2-one], the IC50 fell in the range of 0.1 to 0.3 µM.

Regarding `COc1cc(Nc2nc3c(N4CCN(C(=O)OC(C)(C)C)CC4)nccn3n2)cc(OC)c1` [D1, 4-[2-(3,5-dimethoxy-phenylamino)-[1,2,4]triazolo[1,5-a]pyrazin-8-yl]-piperazine-1-carboxylic acid tert-butyl ester], the half-inhibitory concentration (IC50) lay in the range of 3 to 50 µM.

As for `CC1(C)C(=O)Nc2cc(Nc3nc4c(N5CCc6ccc(C#N)cc6C5)nccn4n3)ccc21` [E124, 2-[2-(3,3-dimethyl-2-oxo-2,3-dihydro-1H-indol-6-ylamino)-[1,2,4]triazolo[1,5-a]pyrazin-8-yl]-1,2,3,4-tetrahydro-isoquinoline-7-carbonitrile], the IC50 was under 0.1 µM.

`COc1cccc(Nc2nc3c(-c4ccccc4-c4ccccc4)nccn3n2)c1` [C7, (8-Biphenyl-2-yl-[1,2,4]triazolo[1,5-a]pyrazin-2-yl)-(3-methoxy-phenyl)-amine]: the IC50 was in the range of 0.3 to 3 µM.

`COc1cc(Nc2nc3c(N4CCNC(c5ccccc5)C4)nccn3n2)cc(OC)c1` (centres unmarked) [C54, (3,5-dimethoxy-phenyl)-[8-(3-phenyl-piperazin-1-yl)-[1,2,4]triazolo[1,5-a]pyrazin-2-yl]-amine]: the concentration for half-maximal inhibition (IC50) is 3 to 50 µM. The result for `CC1(C)C(=O)Nc2cc(Nc3nc4c(N5CCC6(CNC(=O)CO6)C5)nccn4n3)ccc21` (centres unmarked) [E120, 2-[2-(3,3-dimethyl-2-oxo-2,3-dihydro-1H-indol-6-ylamino)-[1,2,4]triazolo[1,5-a]pyrazin-8-yl]-6-oxa-2,9-diaza-spiro[4.5]decan-8-one] reads 0.3 to 3 µM; that for `CC1(C)CCCc2cc(Nc3nc4c(N5CCC6(CC5)CNC(=O)O6)nccn4n3)ccc21` [E54, 8-[2-(5,5-dimethyl-5,6,7,8-tetrahydro-naphthalen-2-ylamino)-[1,2,4]triazolo[1,5-a]pyrazin-8-yl]-1-oxa-3,8-diaza-spiro[4.5]decan-2-one], under 0.1 µM. With `NS(=O)(=O)c1cccc(Nc2nc3c(-c4ccccc4-c4ccccc4)nccn3n2)c1` [C13, 3-(8-Biphenyl-2-yl-[1,2,4]triazolo[1,5-a]pyrazin-2-ylamino)-benzenesulfonamide], the IC50 is 3 to 50 µM. As for `CC1(C)C(=O)Nc2cc(Nc3nc4c(NS(C)(=O)=O)nccn4n3)ccc21` [E104, N-[2-(3,3-dimethyl-2-oxo-2,3-dihydro-1H-indol-6-ylamino)-[1,2,4]triazolo[1,5-a]pyrazin-8-yl]-methanesulfonamide], the concentration for half-maximal inhibition (IC50) was 3 to 50 µM. `COc1cccc(Nc2nc3c(-c4ccccc4C#N)nccn3n2)c1` [E31, 2-[2-(3-methoxy-phenylamino)-[1,2,4]triazolo[1,5-a]pyrazin-8-yl]-benzonitrile]: the IC50 was under 0.1 µM. In the case of `CC1(C)C(=O)Nc2cc(Nc3nc4c(N5CCC6(CNC(=O)O6)C5)nccn4n3)ccc21` (centres unmarked) [E112, 3,3-dimethyl-6-[8-(2-oxo-1-oxa-3,7-diaza-spiro[4.4]non-7-yl)-[1,2,4]triazolo[1,5-a]pyrazin-2-ylamino]-1,3-dihydro-indol-2-one], the half-maximal inhibitory concentration (IC50) was under 0.1 µM.

Compound `CC1(C)C(=O)Nc2cc(Nc3nc4c(N5Cc6cn[nH]c6C5)nccn4n3)ccc21` [E32, 6-[8-(4,6-dihydro-1H-pyrrolo[3,4-c]pyrazol-5-yl)-[1,2,4]triazolo[1,5-a]pyrazin-2-ylamino]-3,3-dimethyl-1,3-dihydro-indol-2-one] returned a half-inhibitory concentration (IC50) of under 0.1 µM. Compound `Cn1cc(-c2nccn3nc(Nc4ccc5c(c4)NC(=O)NC5(C)C)nc23)cn1` [E26, 4,4-dimethyl-7-[8-(1-methyl-1H-pyrazol-4-yl)-[1,2,4]triazolo[1,5-a]pyrazin-2-ylamino]-3,4-dihydro-1H-quinazolin-2-one] registered a half-maximal inhibitory concentration (IC50) of under 0.1 µM. In the case of `CN(C)CCN(C)c1nccn2nc(Nc3ccc4c(c3)NC(=O)C4(C)C)nc12` [E89, 6-{8-[(2-dimethylamino-ethyl)-methyl-amino]-[1,2,4]triazolo[1,5-a]pyrazin-2-ylamino}-3,3-dimethyl-1,3-dihydro-indol-2-one], the IC50 was in the range of 0.3 to 3 µM.

In turn, `CC1(C)C(=O)Nc2cc(Nc3nc4c(N5CCC[C@@H]5C(N)=O)nccn4n3)ccc21` [E22, (R)-1-[2-(3,3-dimethyl-2-oxo-2,3-dihydro-1H-indol-6-ylamino)-[1,2,4]triazolo[1,5-a]pyrazin-8-yl]-pyrrolidine-2-carboxylic acid amide] displayed a half-maximal inhibitory concentration (IC50) of 0.3 to 3 µM. Under `CC1(C)NC(=O)Nc2cc(Nc3nc4c(N5CCC6(CC5)CNC(=O)O6)nccn4n3)ccc21` [E45, 4,4-dimethyl-7-[8-(2-oxo-1-oxa-3,8-diaza-spiro[4.5]dec-8-yl)-[1,2,4]triazolo[1,5-a]pyrazin-2-ylamino]-3,4-dihydro-1H-quinazolin-2-one] stands under 0.1 µM. Consider `CC1(C)C(=O)Nc2cc(Nc3nc4c(N5CCC(C(=O)NC6CC6)C5)nccn4n3)ccc21` (centres unmarked) [E4, 1-[2-(3,3-dimethyl-2-oxo-2,3-dihydro-1H-indol-6-ylamino)-[1,2,4]triazolo[1,5-a]pyrazin-8-yl]-pyrrolidine-3-carboxylic acid cyclopropylamide], for which the 50% inhibitory concentration (IC50) lay in the range of 0.1 to 0.3 µM.

Turning to `CC1(C)CCNc2cc(Nc3nc4c(N5CCC6(CCNC6)C5)nccn4n3)ccc21` (centres unmarked) [E9, [8-(2,7-diaza-spiro[4.4]non-2-yl)-[1,2,4]triazolo[1,5-a]pyrazin-2-yl]-(4,4-dimethyl-1,2,3,4-tetrahydro-quinolin-7-yl)-amine], the IC50 is under 0.1 µM. Consider `CN(C)CC1(O)CCCN(c2nccn3nc(Nc4ccc5c(c4)NC(=O)C5(C)C)nc23)CC1` (centres unmarked) [E138, 6-[8-(4-dimethylaminomethyl-4-hydroxy-azepan-1-yl)-[1,2,4]triazolo[1,5-a]pyrazin-2-ylamino]-3,3-dimethyl-1,3-dihydro-indol-2-one], for which the IC50 was 0.1 to 0.3 µM. Regarding `CC1(C)C(=O)Nc2cc(Nc3nc4c(-c5cccc6[nH]ncc56)nccn4n3)ccc21` [C90, 6-[8-(1H-indazol-4-yl)-[1,2,4]triazolo[1,5-a]pyrazin-2-ylamino]-3,3-dimethyl-1,3-dihydro-indol-2-one], the half-maximal inhibitory concentration (IC50) is under 0.1 µM.

Turning to `CC1(C)C(=O)Nc2cc(Nc3nc4c(N5CC[C@@]6(O)CCCC[C@H]6C5)nccn4n3)ccc21` [E136, 6-[8-((4aS,8aS)-4a-hydroxy-octahydro-isoquinolin-2-yl)-[1,2,4]triazolo[1,5-a]pyrazin-2-ylamino]-3,3-dimethyl-1,3-dihydro-indol-2-one], the IC50 is under 0.1 µM.

For the compound `CC1(C)CCNc2cc(Nc3nc4c(N5CCC6(CC5)CNC(=O)C6)nccn4n3)ccc21` [E77, 8-[2-(4,4-dimethyl-1,2,3,4-tetrahydro-quinolin-7-ylamino)-[1,2,4]triazolo[1,5-a]pyrazin-8-yl]-2,8-diaza-spiro[4.5]decan-3-one], the half-inhibitory concentration (IC50) is under 0.1 µM. In turn, `Cn1cc(-c2nccn3nc(Nc4ccc5c(c4)NC(=O)C54CCC4)nc23)cn1` [E8, 6′-[[8-(1-methylpyrazol-4-yl)-[1,2,4]triazolo[1,5-a]pyrazin-2-yl]amino]spiro[cyclobutane-1,3′-indoline]-2′-one] registered an IC50 of under 0.1 µM. On to `CC1(C)CCNc2cc(Nc3nc4c(N5CCN6C(=O)CNC(=O)C6C5)nccn4n3)ccc21` (centres unmarked) [E154, 8-[2-(4,4-dimethyl-1,2,3,4-tetrahydro-quinolin-7-ylamino)-[1,2,4]triazolo[1,5-a]pyrazin-8-yl]-hexahydro-pyrazino[1,2-a]pyrazine-1,4-dione], for which the half-maximal inhibitory concentration (IC50) is under 0.1 µM. Compound `CC1(C)CC(=O)Nc2cc(Nc3nc4c(N5CCC6(CC5)CNC(=O)O6)nccn4n3)ccc21` [E46, 4,4-dimethyl-7-[8-(2-oxo-1-oxa-3,8-diaza-spiro[4.5]dec-8-yl)-[1,2,4]triazolo[1,5-a]pyrazin-2-ylamino]-3,4-dihydro-1H-quinolin-2-one] had a half-inhibitory concentration (IC50) of under 0.1 µM. On to `CC1(C)C(=O)Nc2cc(Nc3nc4c(N5CC[C@]6(CCNC6)C5)nccn4n3)ccc21` [E105, 6-[(S)-8-(2,7-diaza-spiro[4.4]non-2-yl)-[1,2,4]triazolo[1,5-a]pyrazin-2-ylamino]-3,3-dimethyl-1,3-dihydro-indol-2-one], for which the IC50 was under 0.1 µM. Compound `CNS(=O)(=O)C1CCN(c2nccn3nc(Nc4ccc5c(c4)NC(=O)C5(C)C)nc23)CC1` [E38, 1-[2-(3,3-dimethyl-2-oxo-2,3-dihydro-1H-indol-6-ylamino)-[1,2,4]triazolo[1,5-a]pyrazin-8-yl]-piperidine-4-sulfonic acid methylamide] registered an IC50 of 0.1 to 0.3 µM. `CCN(CC)c1nccn2nc(Nc3ccc4c(c3)NC(=O)C4(C)C)nc12` [E92, 6-(8-diethylamino-[1,2,4]triazolo[1,5-a]pyrazin-2-ylamino)-3,3-dimethyl-1,3-dihydro-indol-2-one]: the IC50 is under 0.1 µM. On to `CC(=O)NCCNc1nccn2nc(Nc3ccc4c(c3)NC(=O)C4(C)C)nc12` [E103, N-{2-[2-(3,3-dimethyl-2-oxo-2,3-dihydro-1H-indol-6-ylamino)-[1,2,4]triazolo[1,5-a]pyrazin-8-ylamino]-ethyl}-acetamide], for which the IC50 was in the range of 0.3 to 3 µM. Compound `Cn1cc(-c2nccn3nc(Nc4ccc5c(c4)NCCC5(C)C)nc23)cn1` [E21, (4,4-dimethyl-1,2,3,4-tetrahydro-quinolin-7-yl)-[8-(1-methyl-1H-pyrazol-4-yl)-[1,2,4]triazolo[1,5-a]pyrazin-2-yl]-amine] had an IC50 of under 0.1 µM. Take `CC1(C)CC(=O)Nc2cc(Nc3nc4c(N5CCC6(CC(=O)NC6=O)C5)nccn4n3)ccc21` (centres unmarked) [E7, 7-[2-(4,4-dimethyl-2-oxo-1,2,3,4-tetrahydro-quinolin-7-ylamino)-[1,2,4]triazolo[1,5-a]pyrazin-8-yl]-2,7-diaza-spiro[4.4]nonane-1,3-dione]: the IC50 is under 0.1 µM.
